US5234907A, “Synthetic vasoactive intestinal peptide analogs” (Hoffmann-La Roche Inc., priority 1991, dated 1993)
[ ]: non-standard residue; d: D form. Phe(4-NH2) = Nc1ccc(C[C@H](N)C(=O)O)cc1; Phe(4-F) = N[C@@H](Cc1ccc(F)cc1)C(=O)O; Nle = CCCC[C@H](N)C(=O)O

What was measured:
[1] = test system: guinea pig tracheal smooth muscle; assay: Tracheal relaxant activity of VIP analogs on isolated guinea pig tracheal rings; assay type: cell-based; details: cumulative concentration response; responses as % of maximum response to VIP (10^-6 M=100%); at least three tissues pooled; linear regression
guinea pigs = assay: In vivo bronchodilator activity by tracheal instillation against histamine-induced bronchoconstriction; set-up: species or system guinea pig; details: 100 μl, anesthetized male Hartley guinea pigs, histamine challenge 50 μg/kg i.v., inhibition of tracheal pressure increase

Substance	EC50 [1]	Bronchodilator activity in guinea pigs, ED50 (guinea pigs)
Ac--[p-F--Phe^6, Glu^8, Lys^12, Nle^17, Ala^25, Leu^26, Lys^27,28, Gly^29,30, Thr^31 ]--VIP (Ac-HSDAV[Phe(4-F)]TENYTKLRKQ[Nle]AVKKYLNALKKGGT-NH2; SMILES CCCC[C@H](NC(=O)[C@H](CCC(N)=O)NC(=O)[C@H](CCCCN)NC(=O)[C@H](CCCNC(=N)N)NC(=O)[C@H](CC(C)C)NC(=O)[C@H](CCCCN)NC(=O)[C@@H](NC(=O)[C@H](Cc1ccc(O)cc1)NC(=O)[C@H](CC(N)=O)NC(=O)[C@H](CCC(=O)O)NC(=O)[C@@H](NC(=O)[C@H](Cc1ccc(F)cc1)NC(=O)[C@@H](NC(=O)[C@H](C)NC(=O)[C@H](CC(=O)O)NC(=O)[C@H](CO)NC(=O)[C@H](Cc1c[nH]cn1)NC(C)=O)C(C)C)[C@@H](C)O)[C@@H](C)O)C(=O)N[C@@H](C)C(=O)N[C@H](C(=O)N[C@@H](CCCCN)C(=O)N[C@@H](CCCCN)C(=O)N[C@@H](Cc1ccc(O)cc1)C(=O)N[C@@H](CC(C)C)C(=O)N[C@@H](CC(N)=O)C(=O)N[C@@H](C)C(=O)N[C@@H](CC(C)C)C(=O)N[C@@H](CCCCN)C(=O)N[C@@H](CCCCN)C(=O)NCC(=O)NCC(=O)N[C@H](C(N)=O)[C@@H](C)O)C(C)C) [Ac--(SEQ ID NO: 17)--NH2]	0.33 nM	0.12 µg
Ac--[p-F--Phe^6, Glu^8, Lys^12, Nle^17, Val^26, Thr^28, Gly^29,30, Thr^31 ]--VIP (Ac-HSDAV[Phe(4-F)]TENYTKLRKQ[Nle]AVKKYLNSVLTGGT-NH2; SMILES CCCC[C@H](NC(=O)[C@H](CCC(N)=O)NC(=O)[C@H](CCCCN)NC(=O)[C@H](CCCNC(=N)N)NC(=O)[C@H](CC(C)C)NC(=O)[C@H](CCCCN)NC(=O)[C@@H](NC(=O)[C@H](Cc1ccc(O)cc1)NC(=O)[C@H](CC(N)=O)NC(=O)[C@H](CCC(=O)O)NC(=O)[C@@H](NC(=O)[C@H](Cc1ccc(F)cc1)NC(=O)[C@@H](NC(=O)[C@H](C)NC(=O)[C@H](CC(=O)O)NC(=O)[C@H](CO)NC(=O)[C@H](Cc1c[nH]cn1)NC(C)=O)C(C)C)[C@@H](C)O)[C@@H](C)O)C(=O)N[C@@H](C)C(=O)N[C@H](C(=O)N[C@@H](CCCCN)C(=O)N[C@@H](CCCCN)C(=O)N[C@@H](Cc1ccc(O)cc1)C(=O)N[C@@H](CC(C)C)C(=O)N[C@@H](CC(N)=O)C(=O)N[C@@H](CO)C(=O)N[C@H](C(=O)N[C@@H](CC(C)C)C(=O)N[C@H](C(=O)NCC(=O)NCC(=O)N[C@H](C(N)=O)[C@@H](C)O)[C@@H](C)O)C(C)C)C(C)C) [Ac--(SEQ ID NO: 14)--NH2]	0.32 nM	0.1 µg
Ac--[p-F--Phe^6, p-NH2 --Phe^10, Lys^12, Nle^17, Val^26, Thr^28 ]--VIP (Ac-HSDAV[Phe(4-F)]TDN[Phe(4-NH2)]TKLRKQ[Nle]AVKKYLNSVLT-NH2; SMILES CCCC[C@H](NC(=O)[C@H](CCC(N)=O)NC(=O)[C@H](CCCCN)NC(=O)[C@H](CCCNC(=N)N)NC(=O)[C@H](CC(C)C)NC(=O)[C@H](CCCCN)NC(=O)[C@@H](NC(=O)[C@H](Cc1ccc(N)cc1)NC(=O)[C@H](CC(N)=O)NC(=O)[C@H](CC(=O)O)NC(=O)[C@@H](NC(=O)[C@H](Cc1ccc(F)cc1)NC(=O)[C@@H](NC(=O)[C@H](C)NC(=O)[C@H](CC(=O)O)NC(=O)[C@H](CO)NC(=O)[C@H](Cc1c[nH]cn1)NC(C)=O)C(C)C)[C@@H](C)O)[C@@H](C)O)C(=O)N[C@@H](C)C(=O)N[C@H](C(=O)N[C@@H](CCCCN)C(=O)N[C@@H](CCCCN)C(=O)N[C@@H](Cc1ccc(O)cc1)C(=O)N[C@@H](CC(C)C)C(=O)N[C@@H](CC(N)=O)C(=O)N[C@@H](CO)C(=O)N[C@H](C(=O)N[C@@H](CC(C)C)C(=O)N[C@H](C(N)=O)[C@@H](C)O)C(C)C)C(C)C) [Ac--(SEQ ID NO: 68)--NH2]	1.2 nM	3.0 µg
Ac--[p-NH2 --Phe^10, Lys^12, Nle^17, Val^26, Thr^28 ]--VIP (Ac-HSDAVFTDN[Phe(4-NH2)]TKLRKQ[Nle]AVKKYLNSVLT-NH2; SMILES CCCC[C@H](NC(=O)[C@H](CCC(N)=O)NC(=O)[C@H](CCCCN)NC(=O)[C@H](CCCNC(=N)N)NC(=O)[C@H](CC(C)C)NC(=O)[C@H](CCCCN)NC(=O)[C@@H](NC(=O)[C@H](Cc1ccc(N)cc1)NC(=O)[C@H](CC(N)=O)NC(=O)[C@H](CC(=O)O)NC(=O)[C@@H](NC(=O)[C@H](Cc1ccccc1)NC(=O)[C@@H](NC(=O)[C@H](C)NC(=O)[C@H](CC(=O)O)NC(=O)[C@H](CO)NC(=O)[C@H](Cc1c[nH]cn1)NC(C)=O)C(C)C)[C@@H](C)O)[C@@H](C)O)C(=O)N[C@@H](C)C(=O)N[C@H](C(=O)N[C@@H](CCCCN)C(=O)N[C@@H](CCCCN)C(=O)N[C@@H](Cc1ccc(O)cc1)C(=O)N[C@@H](CC(C)C)C(=O)N[C@@H](CC(N)=O)C(=O)N[C@@H](CO)C(=O)N[C@H](C(=O)N[C@@H](CC(C)C)C(=O)N[C@H](C(N)=O)[C@@H](C)O)C(C)C)C(C)C) [Ac--(SEQ ID NO: 54)--NH2]	0.36 nM	2.0 µg
